Measurements reported in US20090117074A1, “Sulfonylpyrroles as Histone Deacetylase Inhibitors” (NYCOMED GmbH, priority 2005, published 2009).
Where a name gives a salt, the structure may show the parent alone.

Experiments:
[1] = test system: A549 NSCLC cell line; experiment: Cellular cytotoxicity assay (Alamar Blue), A549; assay type: cell-based; settings: Homo sapiens, 48 or 72 hours, read-out: IC50, anti-proliferative/cytotoxic activity
Experimental: (§1) The anti-proliferative activity of the histone deacetylase inhibitory compounds as described herein, Is evaluated with the HeLa cervical carcinoma cell line (ATCC CCL2) and A549 non-small cell lung cancer cell line (ATCC CCL185) using the Alamar Blue (Resazurin) cell viability assay (O'Brien et al. Eur J Biochem 267, 5421-5426, 2000). Resazurin is reduced to the fluorescent resorufin by cellular dehydrogenase activity, correlating with viable, proliferating cells. Test compounds are dissolved as 20 mM solutions in dimethylsulfoxide (DMSO) and subsequently diluted in semi-logarithmic steps. HeLa or A549 cells are seeded into 96 well flat bottom plates at a density of 1000 and 2000 cells per well, respectively, in a volume of 200 μl per well. 24 hours after seeding 1 μl each of the compound dilutions are added into each well of the 96 Well plate. Each compound dilution is tested as quadruplicates.
(§2) Wells containing untreated control cells are filled with 200 μl DMEM medium containing 0.5% v:v DMSO. The cells are then incubated with the substances for 48 or 72 hours at 37° C. in a humidified atmosphere containing 5% carbon dioxide. To determine the viability of the cells, 20 μl of an Resazurin solution (Sigma; 90 mg/I) were added. After 4 hours incubation at 37° C. the fluorescence is measured at an extinction of 544 nm and an emission of 590 nm. For the calculation of the cell viability the emission value from untreated cells is set as 100% viability and the emission rates of treated cells are set in relation to the values of untreated cells. Viabilities are expressed as % values. The corresponding IC50 values of the compounds for cytotoxic activity are determined from the concentration-effect curves by means of non-linear regression.

[2] = test system: HeLa cervical carcinoma cell line; experiment: Cellular cytotoxicity assay (Alamar Blue), HeLa; assay type: cell-based; settings: Homo sapiens, 48 or 72 hours, read-out: IC50, anti-proliferative/cytotoxic activity
Experimental: as §1, §2

[3] = test system: histone H3 hyperacetylation in HeLa cells; experiment: Cellular histone H3 hyperacetylation assay; assay type: cell-based; settings: Homo sapiens, 24 h incubation
From the text: To assess the cellular efficacy of a histone deacetylase inhibitor in vitro, an assay is set up in black clear-bottom 96-well plates and optimized for use on the Cellomics “ArrayScan II” platform for a quantitative calculation of histone acetylation. The protocol uses a polyclonal rabbit antibody, specifically binding to acetylated lysine 23 or, alternatively, acetylated lysine 9+14 of human histone H3 on fixed cells with an Alexa Fluor 488 labeled goat anti rabbit-IgG used for counterstaining (modified from Braunger et al. AACR annual conference 2003, Abstract 4556).
5×10^3 HeLa cervical carcinoma cells/well (ATCC CCL-2) in 200 μl Dulbecco's modified Eagle's medium (DMEM) containing 10% fetal calf serum are seeded at day 1 in Packard view plates and incubated for 24 h under standard cell culture conditions. On day 2, 1 μl test compound (200× final concentration) is added and incubation continued for further 24 h. On day 3, the culture medium is discarded and attached cells fixed for 15 min at room temperature by addition of 100 μl fixation buffer (3.7% v:v formaldehyde in phosphate buffered saline/PBS). After discarding the fixation buffer and one wash with blocking solution (1% BSA, 0.3% Tween 20 in PBS), cells are permeabilized at room temperature by addition of 100 μl/well permeabilization buffer (30.8 mM NaCl, 0.54 mM Na2HPO4, 0.31 mM KH2PO4, 0.1% v:v Triton X-100) for 15 min at room temperature. After discarding the permeabilization buffer and washing twice with 100 μl/well blocking solution at room temperature, the 1st antibody (anti-K23 histone H3 antibody, Cell Signaling No. 9674 or, alternatively, anti-K9+14 histone H3 antibody, Calbiochem No. 382158) in blocking solution (50 μl/well) is added. After incubation for 1 h at room temperature, the wells are washed twice at room temperature with 100 μl/well blocking solution before addition of the 2nd antibody (goat-anti-rabbit Alexa Fluor 488; MoBiTec No. A-11008) in blocking solution (50 μl/well). After further incubation for 1 h at room temperature, wells are washed twice with 100 μl/well blocking solution at room temperature. Finally, 100 μl/well PBS are added and image analysis performed on the Cellomics “ArrayScan II” platform. For EC50 determination, the percentage of positive cells showing nuclear fluorescence is determined and EC50 calculation done from concentration-effect curves by means of non-linear regression. For calibration, a positive (reference HDAC inhibitors like SAHA or LBH589) and negative control is included.

[4] = test system: A549 cells; experiment: Apoptosis induction (cell death detection ELISA); assay type: cell-based, human; settings: 10 μM, 48 hours
Experimental: The induction of apoptosis is measured by using the cell death detection ELISA (Art. No. 1774425, Roche Biochemicals, Mannheim, Germany). A549 NSCLC cells are seeded into 96 well flat bottom plates at a density of 3×10 E3 cells/well in a total volume of 200 μl/well. 24 hours after seeding, 1 μl each of the compound dilutions in DMEM are added in a total volume of 200 μl into each well (final volume 200 μl/well). Each compound dilution is tested at least as triplicates. Wells containing untreated control cells are filled with 200 μl DMEM containing 0.5 vol % DMSO. The cells are incubated with test compound for 48 hours at 37° C. in a humidified atmosphere containing 5% carbon dioxide. As a positive control for the induction of apoptosis, cells are treated with 50 μM Cisplatin (Gry Pharmaceuticals, Kirchzarten, Germany). Medium is then removed and the cells lysed in 200 μl lysis buffer. After centrifugation as described by the manufacturer, 10 μl of cell lysate is processed as described in the protocol. The degree of apoptosis is calculated as follows: The absorbance at 405 nm obtained with lysates from cells treated with 50 μM cisplatin is set as 100 cpu (cisplatin units), while an absorbance at 405 nm of 0.0 is set as 0.0 cpu. The degree of apoptosis is expressed as cpu in relation to the value of 100 cpu reached with the lysates obtained from cells treated with 50 μM cisplatin.

Work on `Cc1nc(C)c(S(=O)(=O)n2ccc(C=CC(=O)NO)c2)s1` [Example 11, (E)-3-[1-(2, Dimethyl-thiazole-5-sulfonyl)-1H-pyrrol-3-yl]-N-hydroxy-acrylamide] yielded an IC50 [1] of 313 to 6200 nM and an IC50 [2] of 230 to 4200 nM.

Work on `Cc1nc(S(=O)(=O)n2ccc(/C=C/C(=O)NO)c2)cn1C` [Example 12, (E)-3-[1-(1,2-Dimethyl-1H-imidazole-4-sulfonyl)-1H-pyrrol-3-yl]-N-hydroxy-acrylamide] yielded a melting point of 190 to 194 °C.

Compound `Cc1nc(C)c(S(=O)(=O)n2ccc(C=CC(=O)NO)c2)s1` (as salt: HCl) [Example 11, (E)-3-[1-(2, Dimethyl-thiazole-5-sulfonyl)-1H-pyrrol-3-yl]-N-hydroxy-acrylamide] has a melting point of 181 to 182 °C.

Compound `O=C(/C=C/c1ccn(S(=O)(=O)c2ccc(N3CCOCC3)nc2)c1)NO` [Example 4, (E)-N-Hydroxy-3-[1-(6-morpholin-4-yl-pyridine-3-sulfonyl)-1H-pyrrol-3-yl]-acrylamide] has an EC50 [3] of 190 to 10000 nM, an IC50 [1] of 313 to 6200 nM and an IC50 [2] of 230 to 4200 nM.

Work on `O=C(/C=C/c1ccn(S(=O)(=O)c2ccc3ccccc3c2)c1)NO` [Example 1, (E)-N-Hydroxy-3-[1-(naphthalene-2-sulfonyl)-1H-pyrrol-3-yl]-acrylamide] yielded an EC50 [3] of 190 to 10000 nM, an IC50 [1] of 313 to 6200 nM and an IC50 [2] of 230 to 4200 nM. The “Apoptosis induction (cisplatin units; 50 μM cisplatin = 100 cpu)” value [4] was 310 cpu.

Compound `Cn1cc(S(=O)(=O)n2ccc(/C=C/C(=O)NO)c2)cn1` [Example 8, (E)-N-Hydroxy-3-[1-(1-methyl-1H-pyrazole-4-sulfonyl)-1H-pyrrol-3-yl]-acrylamide] has an IC50 [1] of 313 to 6200 nM and an IC50 [2] of 230 to 4200 nM.

`O=C(/C=C/c1ccn(S(=O)(=O)c2cccnc2)c1)NO` [Example 3, (E)-N-Hydroxy-3-[1-(pyridine-3-sulfonyl)-1H-pyrrol-3-yl]-acrylamide] showed an IC50 [1] of 313 to 6200 nM, an IC50 [2] of 230 to 4200 nM and a melting point of 161.4 to 176.4 °C.

`O=C(/C=C/c1ccn(S(=O)(=O)c2ccc3ncsc3c2)c1)NO` [Example 10, (E)-3-[1-(Benzothiazole-6-sulfonyl)-1H-pyrrol-3-yl]-N-hydroxy-acrylamide] gave an EC50 [3] of 190 to 10000 nM, an IC50 [1] of 313 to 6200 nM and an IC50 [2] of 230 to 4200 nM.

With `O=C(/C=C/c1ccn(S(=O)(=O)c2cc3ccccc3s2)c1)NO` [Example 9, (E)-3-[1-(Benzo[b]thiophene-2-sulfonyl)-1H-pyrrol-3-yl]-N-hydroxy-acrylamide] the EC50 [3] was 190 to 10000 nM, the IC50 [1] was 313 to 6200 nM and the IC50 [2] was 230 to 4200 nM.

`Nc1ccccc1NC(=O)/C=C/c1ccn(S(=O)(=O)c2ccc3ccccc3c2)c1` [Example 2, (E)-N-(2-Amino-phenyl)-3-[1-(naphthalene-2-sulfonyl)-1H-pyrrol-3-yl]-acrylamide] gave an EC50 [3] of 190 to 10000 nM, an IC50 [1] of 313 to 6200 nM and an IC50 [2] of 230 to 4200 nM. For the same compound, the “Apoptosis induction (cisplatin units; 50 μM cisplatin = 100 cpu)” value [4] was 46 cpu.
